Residues, ends and D or L forms follow the SMILES beside them.
Columns and labels:
L. infantum amastigotes = assay: Amastigote growth inhibition assay (parasite rescue and transformation, RAW 264.7 macrophages); assay type: cell-based, Leishmania infantum; details: in vitro
Protocol: Compound activity on amastigotes was determined following the parasite rescue and transformation assay ([61]). RAW 264.7 macrophages were seeded in 96-well microtiter plates at 10^5 cells/mL of DMEM supplemented with 10% FBS and 1% penicillin-streptomycin (complete DMEM, DMEMc) in a final volume of 200 µL per well. After an overnight incubation (37°C, 5% CO2) to allow cell adherence, the medium was removed and 10^6 L. infantum promastigotes/mL were added (1:10 macrophage:promastigote ratio) in DMEM supplemented with 2% FBS and 1% penicillin-streptomycin (DMEM 2% FBS). After 24 h, parasites not internalized by macrophages were removed by washing (3×, PBS) and dilutions in DMEM 2% FBS of free or liposome-encapsulated compounds were added. After 48 h, the medium was removed, cells were washed three times with PBS, and 40 µL of 0.05% SDS in complete Schneider’s medium was added; after 40 s, 160 additional µL/well of complete Schneider’s medium was added and plates were incubated at 26°C for another 48 h. Then, resazurin sodium salt was incorporated at a final concentration of 0.00125% and plates were incubated for 24 h more in the same conditions. Afterwards, resorufin fluorescence was measured as above.

[1] = tested on: L. infantum promastigotes; assay: microbe, parasite or virus in culture; assay type: cell-based, Leishmania infantum; details: for Selectivity index (CC50/IC50): CC50 in human umbilical vein endothelial cells / IC50 for promastigotes; for IC50: L. infantum promastigotes, in vitro; for growth inhibition: promastigotes, 72 h, 100 µM
Protocol: L. infantum (MHOM/ES/2016/CATB101) promastigotes were maintained at 26°C in complete Schneider’s medium (Schneider’s insect medium supplemented with 10% FBS, 25 µg/mL gentamycin, 1% penicillin-streptomycin, and 1% sterile human urine, pH 6.7). For growth inhibition assays, promastigotes were used in the logarithmic growth phase, whereas for the infection of macrophages and generation of amastigotes they were used in the stationary phase. Axenic amastigotes were obtained following established protocols ([40], [57][–][59]); briefly, 1 × 10^7 promastigotes/mL in stationary phase were cultured in Schneider’s insect medium supplemented with 20% FBS, 25 µg/mL gentamycin, and 3.9 g/L of 2-(N-morpholino)ethanesulfonic acid, at pH 5.4 and 37°C. After 48 h, the typical rounded morphology of axenic amastigotes and their flagellum shortening could be observed. This culture was used within a week after its preparation.
In 96-well microtiter plates (Nunclon Delta surface; Thermo Fisher Scientific Inc.), serial dilutions (1:2) of the drugs or peptides were performed, either free or loaded in nanoformulations, in 100 µL of complete Schneider’s medium, to which one volume of 2 × 10^6 logarithmic growth-phase L. infantum promastigotes/mL in the same buffer was added. After 48 h, resazurin sodium salt was incorporated at a final concentration of 0.00125% and the plates were incubated at 26°C for another 24 h, when fluorescence from resorufin was measured as described above.

in vitro = assay type: cell-based; details: human umbilical vein endothelial cells; for CC50: 48 h
Protocol: Human umbilical vein endothelial cells were maintained in M-199 supplemented with 10% fetal bovine serum (FBS) and 1% penicillin-streptomycin at 37°C, 5% CO2, and seeded in 96-well plates at a density of 50,000 cells/mL. After allowing cell adherence for 24 h, the medium was removed, and drugs or nanoformulations were added in M-199 supplemented with 1% penicillin-streptomycin. Plates were incubated for 48 h, and then, the medium in each well was replaced by 100 µL of M-199 containing penicillin-streptomycin and 0.00125% resazurin sodium salt (Sigma-Aldrich Corporation). Plates were incubated for 4 h, and resorufin fluorescence emission was measured (λex/em: 535/590 nm) in a Tecan Infinite 200 PRO equipment (Tecan Trading AG).

promastigotes = tested on: promastigotes; parameters: method as in PMID 16316700; details: cited from earlier work
[2] = Leishmania infantum, RAW264.7, L. infantum amastigotes in RAW 264.7 macrophages
[3] = L. infantum amastigotes in RAW 264.7 macrophages

Row | SMILES | IC50 (L. infantum amastigotes; [2]) [µM] | Selectivity index (CC50/IC50) [1] | IC50 ([1]; Leishmania infantum) [µM] | CC50 (in vitro) [µM] | IC50 (L. infantum amastigotes; [3]) [µM] | IC50 [1] [µM] | CC50 at 48 h (in vitro) [µM] | also measured
1 | COc1cc2c(cc1OC)C(=O)C(CC1CCN(CCCNc3c4c(nc5cc(Cl)ccc35)CCCC4)CC1)C2 (stereo not drawn) [DONE3TCl] | 0.62 ± 0.08 | 6.0 | 2.09 ± 0.4 | 12.6 ± 2.2 | – | – | – | –
2 | CC1=CC2Cc3nc4ccccc4c(NCCCCCCCCCCNc4c5c(nc6ccccc46)CCCC5)c3C(C1)C2 (stereo not drawn) [HUPH10TH] | – | – | – | – | 0.97 ± 0.21 | 0.72 ± 0.11 | 3.4 ± 0.1 | –
3 | CC[C@H](C)[C@H](NC(=O)[C@H](Cc1ccccc1)NC(=O)[C@H](CC(N)=O)NC(=O)[C@H](CC(=O)O)NC(C)=O)C(=O)N[C@@H](Cc1ccccc1)C(=O)NCC(=O)N[C@@H](CCC(N)=O)C(N)=O [DNFIFGQ, Acetyl-DNFIFGQ-amide] (Ac-DNFIFGQ-NH2) | – | – | – | – | – | – | – | growth inhibition [1]: 2%
4 | CC1=CC2Cc3nc4cc(Cl)ccc4c(NCCCCCCCNc4c5c(nc6ccccc46)CCCC5)c3C(C1)C2 (stereo not drawn) [HUP7TH] | – | – | – | – | 0.92 ± 0.38 | 1.23 ± 0.42 | 7.8 ± 3.4 | –
5 | CC1=CC2Cc3nc4cc(Cl)ccc4c(NCCCN(C)CCCNc4c5c(nc6ccccc46)CCCC5)c3C(C1)C2 (stereo not drawn) [HUPNTH] | – | – | – | – | 1.52 ± 0.66 | 2.37 ± 1.4 | 3.4 ± 1 | –
6 | CC[C@H](C)[C@H](NC(=O)[C@H](C)NC(C)=O)C(=O)N[C@@H](CO)C(=O)N[C@H](C(=O)N[C@@H](Cc1ccccc1)C(=O)N[C@@H](Cc1ccccc1)C(=O)N[C@@H](CC(C)C)C(=O)N[C@@H](CCC(=O)O)C(=O)N1CCC[C@H]1C(N)=O)C(C)C (Ac-AISVFFLEP-NH2) | – | – | – | – | – | – | – | growth inhibition [1]: 0%
7 | CC1=CC2Cc3nc4cc(Cl)ccc4c(NCCCN(C)CCCNc4c5c(nc6cc(Cl)ccc46)CCCC5)c3C(C1)C2 (stereo not drawn) [HUPNTCl] | 1.04 ± 0.21 | 3.1 | 2.03 ± 0.19 | 6.3 ± 0.5 | – | – | – | –
8 | C[C@@H]1[C@H](O)[C@@H](C)/C=C/C=C/C=C/C=C/C=C/C=C/C=C/[C@H](O[C@@H]2O[C@H](C)[C@@H](O)[C@H](N)[C@@H]2O)C[C@@H]2O[C@](O)(C[C@@H](O)C[C@@H](O)[C@H](O)CC[C@@H](O)C[C@@H](O)CC(=O)O[C@H]1C)C[C@H](O)[C@H]2C(=O)O [Amphotericin B] | – | – | – | – | – | – | – | IC50 (promastigotes): 0.04 µM
9 | CC1=CC2Cc3nc4cc(Cl)ccc4c(NCCCCCCCCNc4c5c(nc6ccccc46)CCCC5)c3C(C1)C2 (stereo not drawn) [HUP8TH] | 1.63 ± 0.34 | 4.9 | 0.99 ± 0.47 | 4.9 ± 1.3 | – | – | – | –

Reference: PMC10916400, “Effect of the aggregated protein dye YAT2150 on Leishmania parasite viability” (Antimicrobial Agents and Chemotherapy, 2024)
